From patent US20260083704A1, “LXR MODULATORS WITH BICYCLIC CORE MOIETY FOR TREATING DYSLIPIDEMIAS” (OrsoBio, Inc., priority 2022, published 2026)
pEC50: −log10 of the molar value.

Experiments:
[1] = molecular target: T1, GST-LXRβ ligand-binding domain (Homo sapiens, UniProt P55055); test: TR-FRETβ activity assay (NCoA3 coactivator peptide recruitment); assay type: biochemical; settings: 1 μM 24(S)-25-epoxycholesterol prestimulation
T1 construct: amino acids 156-461; NP009052; made in house; host or cells: E. coli
T1 sequence (P55055 156-460 limits assumed): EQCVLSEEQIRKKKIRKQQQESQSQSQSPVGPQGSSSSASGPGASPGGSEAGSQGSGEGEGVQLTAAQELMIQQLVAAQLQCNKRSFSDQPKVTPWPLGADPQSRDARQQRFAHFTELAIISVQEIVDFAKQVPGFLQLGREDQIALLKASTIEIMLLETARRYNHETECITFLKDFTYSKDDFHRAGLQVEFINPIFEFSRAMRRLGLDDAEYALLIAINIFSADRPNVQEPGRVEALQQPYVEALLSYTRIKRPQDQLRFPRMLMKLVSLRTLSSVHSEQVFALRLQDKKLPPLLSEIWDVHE
Method: Recombinant GST-LXRβ ligand-binding domain (LBD; amino acids 156-461; NP009052; SEQ ID NO:4) was expressed in E. coli and purified via gluthatione-sepharose affinity chromatography. N-terminally biotinylated NCoA3 coactivator peptide (SEQ ID NO:7) was chemically synthesized (Eurogentec). Assays were done in 384 well format (final assay volume of 25 μL/well) in a Tris/HCl buffer (pH 6.8) containing KCl, bovine serum albumin, Triton-X-100 and 1 μM 24(S)-25-epoxycholesterol as LXR-prestimulating agonist. Assay buffer was provided and test articles (potential LXR inverse agonists) were titrated to yield final assay concentrations of 50 μM, 16.7 μM, 5.6 μM, 1.9 μM, 0.6 μM, 0.2 μM, 0.07 μM, 0.02 μM, 0.007 μM, 0.002 μM with one vehicle control. Finally, a detection mix was added containing anti GST-Tb cryptate (CisBio; 610SAXLB) and Streptavidin-XL665 (CisBio; 610SAXLB) as fluorescent donor and acceptor, respectively, as well as the coactivator peptide and LXRβ-LBD protein (SEQ ID NO:4). The reaction was mixed thoroughly, equilibrated for 1 h at 4° C. and vicinity of LXRβ and coactivator peptide was detected by measurement of fluorescence in a VictorX4 multiplate reader (PerkinElmer Life Science) using 340 nm as excitation and 615 and 665 nm as emission wavelengths. Assays were performed in triplicates.
240 mM KCl, 1 μg/μL BSA, 0.002% Triton-X-100, […] anti GST-Tb cryptate, 2.5 ng/μL Streptavidin-XL665, coactivator peptide (400 nM), LXRβ protein (530 μg/mL, i.e. 76 nM).

[2] = molecular target: T2, LXRβ (Homo sapiens, UniProt P55055); test: LXR Gal4 reporter transient transfection assay (mammalian two-hybrid, HEK293), LXRβ; assay type: cell-based; parameters: LXRβ (amino acids 156-461); expressed in transfected cells; host or cells: HEK293; settings: full length (FL) LXRβ, HEK293; read-out: FL-M2H Gal4β
T2 sequence (P55055 1-460): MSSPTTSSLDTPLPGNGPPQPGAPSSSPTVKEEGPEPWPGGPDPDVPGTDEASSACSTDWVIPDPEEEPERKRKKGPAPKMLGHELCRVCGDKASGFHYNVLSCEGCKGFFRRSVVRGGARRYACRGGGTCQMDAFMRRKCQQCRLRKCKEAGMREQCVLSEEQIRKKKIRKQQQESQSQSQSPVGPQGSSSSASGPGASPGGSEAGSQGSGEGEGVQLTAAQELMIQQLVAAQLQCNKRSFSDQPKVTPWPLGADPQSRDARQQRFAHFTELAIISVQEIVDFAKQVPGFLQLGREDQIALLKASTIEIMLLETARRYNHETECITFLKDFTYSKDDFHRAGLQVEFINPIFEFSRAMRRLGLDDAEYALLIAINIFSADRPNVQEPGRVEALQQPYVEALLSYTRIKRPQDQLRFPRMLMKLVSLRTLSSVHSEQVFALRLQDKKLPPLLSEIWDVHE
Method: LXRα and LXRβ activity status was determined via detection of interaction with coactivator and corepressor proteins in mammalian two-hybrid experiments (M2H). For this, via transient transfection the full length (FL) proteins of LXRα (amino acids 1-447; NP005684; SEQ ID NO:1) or LXRβ-(amino acids 1-461; NP009052; SEQ ID NO:2) or the ligand-binding domains (LBD) of LXRα (amino acids 155-447 SEQ ID NO:3) or LXRβ (amino acids 156-461; SEQ ID NO:4) were expressed from pCMV-AD (Stratagene) as fusions to the transcriptional activation domain of NFkB. As cofactors, domains of either the steroid receptor coactivator 1 (SRC1; amino acids 552-887; SEQ ID NO:5) or of the corepressor NCoR (amino acids 1906-2312; NP006302; SEQ ID NO:6) were expressed as fusions to the DNA binding domain of the yeast transcription factor GAL4 (from pCMV-BD; Stratagene). Interaction was monitored via activation of a coexpressed Firefly Luciferase Reporter gene under control of a promoter containing repetitive GAL4 response elements (vector pFRLuc; Stratagene). Transfection efficiency was controlled via cotransfection of constitutively active pRL-CMV Renilla reniformis luciferase reporter (Promega). HEK293 cells were grown in minimum essential medium (MEM) with 2 mM L-glutamine and Earle's balanced salt solution supplemented with 8.3% fetal bovine serum, 0.1 mM non-essential amino acids, 1 mM sodium pyruvate, at 37° C. in 5% CO2. 3.5×10^4 cells/well were plated in 96-well cell culture plates in growth medium supplemented with 8.3% fetal bovine serum for 16-20 h to ˜90% confluency. For transfection, medium was taken off and LXR and cofactor expressing plasmids as well as the reporter plasmids are added in 30 μL OPTIMEM/well including polyethylene-imine (PEI) as vehicle. Typical amounts of plasmids transfected/well: pCMV-AD-LXR (5 ng), pCMV-BD-cofactor (5 ng), pFR-Luc (100 ng), pRL-CMV (0.5 ng). Compound stocks were prepared in DMSO, prediluted in MEM to a total volume of 120 μL, and added 4 h after addition of the transfection mixture (final vehicle concentration not exceeding 0.2%). Cells were incubated for additional 16 h, lysed for 10 min in 1×Passive Lysis Buffer (Promega) and Firefly and Renilla luciferase activities were measured sequentially in the same cell extract using buffers containing D-luciferine and coelenterazine, respectively. Measurements of luminescence were done in a BMG-luminometer.
The potencies of Compound 21/3 and its analog, Compound pre-6/3, against LXRα and LXRβ were evaluated in biochemical binding assays, cellular mammalian two-hybrid (M2H) interaction assays evaluating nuclear receptor co-repressor (NCOR) recruitment, and cellular reporter assays evaluating transcriptional activity (Table 5).

Compound	pEC50 [1]	pEC50 [2]
COc1ccc2c(c1)c(-c1ccsc1C#N)c(-c1cccs1)n2S(=O)(=O)c1ccc(Cl)cc1 [1/39]	< 5.00	
COC(=O)c1ccc(-c2cccc(-c3c(-c4c(C)cccc4C#N)c4cc(F)ccc4n3S(=O)(=O)c3ccc(C(F)F)cc3)c2)c(Cl)c1 [1/122]	6.00 to 7.00	> 7.00
N#Cc1cccc(C#N)c1-c1c(-c2cccc(Br)c2)n(S(=O)(=O)c2ccc(C(F)F)cc2)c2ccc(F)cc12 [1/139]	6.00 to 7.00	> 7.00
Cc1ccc(S(=O)(=O)n2c(-c3cccc(-c4ccc(CN)cc4Cl)c3)c(-c3ccsc3C#N)c3cc(F)ccc32)cc1 [2/1]	6.00 to 7.00	6.00 to 7.00
Cc1ccc(S(=O)(=O)n2c(-c3cccc(-c4ccc(C(C)(C)N)cc4Cl)c3)c(-c3ccsc3C#N)c3cc(F)ccc32)cc1 [2/2]	6.00 to 7.00	6.00 to 7.00
Cc1ccc(S(=O)(=O)n2c(-c3cccc(-c4cc(F)c(CO)c(S(C)(=O)=O)c4)c3)c(-c3ccsc3C#N)c3cc(F)ccc32)cc1 [2/16]	> 7.00	> 7.00
Cc1ccc(S(=O)(=O)n2c(-c3cccc(-c4ccc(C(C)(C)C(=O)O)c(S(C)(=O)=O)c4)c3)c(-c3ccsc3C#N)c3cc(F)ccc32)cc1 [2/18]	6.00 to 7.00	> 7.00
Cc1ccc(S(=O)(=O)n2c(-c3cccc(C4(C)CC4C(=O)O)c3)c(-c3ccsc3C#N)c3cc(F)ccc32)cc1 (centres unmarked) [3/1]	6.00 to 7.00	6.00 to 7.00
Cc1ccc(S(=O)(=O)n2c(-c3cccc(C4(C)CC4C(=O)O)c3)c(-c3ccsc3C#N)c3cc(F)ccc32)cc1 (centres unmarked) [3/2]	5.00 to 6.00	> 7.00
COc1sccc1-c1c(-c2cccc(N3CC(C(=O)O)C3)c2)n(S(=O)(=O)c2ccc(C)cc2)c2ccc(F)cc12 [3/3]	5.00 to 6.00	6.00 to 7.00
Cc1ccc(S(=O)(=O)n2c(-c3cccc(N4CC(C(=O)O)C4)c3)c(-c3ccsc3C(F)F)c3cc(F)ccc32)cc1 [3/4]	6.00 to 7.00	> 7.00
Cc1ccc(S(=O)(=O)n2c(-c3cccc(N4CC(C(=O)O)C4)c3)c(-c3ccsc3C=O)c3cc(F)ccc32)cc1 [3/5]	6.00 to 7.00	6.00 to 7.00
COCc1sccc1-c1c(-c2cccc(N3CC(C(=O)O)C3)c2)n(S(=O)(=O)c2ccc(C)cc2)c2ccc(F)cc12 [3/6]	5.00 to 6.00	6.00 to 7.00
Cc1ccc(S(=O)(=O)n2c(-c3cccc(N4CC(C(=O)O)C4)c3)c(-c3ccsc3/C=N/O)c3cc(F)ccc32)cc1 [3/7]	5.00 to 6.00	> 7.00
CCc1ccc(S(=O)(=O)n2c(-c3cccc(N4CC(C(=O)O)C4)c3)c(-c3ccsc3C#N)c3cc(F)ccc32)cc1 [3/10]	6.00 to 7.00	> 7.00
N#Cc1sccc1-c1c(-c2cccc(N3CC(C(=O)O)C3)c2)n(S(=O)(=O)c2ccc(OC(F)F)cc2)c2ccc(F)cc12 [3/11]	5.00 to 6.00	

Compound	pEC50 [1]	pEC50 [2]
N#Cc1sccc1-c1c(-c2cccc(N3CC(C(=O)O)C3)c2)n(S(=O)(=O)c2ccc3c(c2)CCC3)c2ccc(F)cc12 [3/12]	6.00 to 7.00	> 7.00
N#Cc1sccc1-c1c(-c2cccc(N3CC(C(=O)O)C3)c2)n(S(=O)(=O)c2ccc3ccccc3c2)c2ccc(F)cc12 [3/13]	5.00 to 6.00	> 7.00
Cc1ccc(S(=O)(=O)n2c(-c3cccc(N4CC(C(=O)O)C4)c3)c(-c3ccsc3C#N)c3cc(F)ccc32)c(F)c1 [3/14]	5.00 to 6.00	6.00 to 7.00
Cc1ccc(S(=O)(=O)n2c(-c3cccc(S(=O)(=O)CC(=O)O)c3)c(-c3ccsc3C#N)c3ccccc32)cc1 [3/15]	5.00 to 6.00	
CC1CCN(S(=O)(=O)n2c(-c3cccc(-c4ccc(C(=O)O)cc4Cl)c3)c(-c3ccsc3C#N)c3cc(F)ccc32)CC1 [3/21]	6.00 to 7.00	> 7.00
[2H]c1c([2H])c(S(=O)(=O)n2c(-c3cccc(-c4ccc(C(=O)O)cc4Cl)c3)c(-c3ccsc3C#N)c3cc(F)ccc32)c([2H])c([2H])c1C([2H])([2H])[2H] [3/22]	> 7.00	> 7.00
Cc1cc(S(=O)(=O)n2c(-c3cccc(-c4ccc(C(=O)O)cc4Cl)c3)c(-c3ccsc3C#N)c3cc(F)ccc32)ccc1F [3/23]	6.00 to 7.00	> 7.00
Cc1ccc(S(=O)(=O)n2c(-c3cccc(N4CC(C(=O)O)C4)c3)c(-c3sccc3C#N)c3cc(F)ccc32)cc1 [3/25]	5.00 to 6.00	> 7.00
CC(O)(C(=O)O)c1ccc(-c2cccc(-c3c(-c4c(C#N)cccc4C#N)c4cc(F)ccc4n3S(=O)(=O)c3ccc(C(F)F)cc3)c2)c(Cl)c1 (centres unmarked) [11/60]		> 7.00
N#Cc1sccc1-c1c(-c2cccs2)n(S(=O)(=O)c2ccc(Cl)cc2)c2cc(OCC(=O)O)ccc12 [15/3]	< 5.00	
N#Cc1sccc1-c1c(-c2ccccc2)n(S(=O)(=O)c2ccc(CC(=O)O)cc2)c2ccccc12 [27/1]	5.00 to 6.00	
N#Cc1sccc1-c1c(-c2ccccc2)n(S(=O)(=O)c2ccc(-c3cccc(C(=O)O)c3)cc2)c2ccccc12 [27/2]	5.00 to 6.00	
N#Cc1sccc1-c1c(-c2ccccc2)n(S(=O)(=O)c2ccc(CC(=O)O)s2)c2ccccc12 [27/3]	< 5.00	
Cn1cnc(S(=O)(=O)n2c(-c3cccc(C4CC4C(=O)O)c3)c(-c3ccsc3C#N)c3ccccc32)c1 (centres unmarked) [30/10]	< 5.00	
Cc1cccc(C#N)c1-c1c(-c2cccc(-c3ccc(C(=O)O)cc3Cl)c2)n(S(=O)(=O)c2ccc(C(F)F)cc2)c2ccc(F)cc12 [41/1, 2-chloro-3′-(3-(2-cyano-6-methylphenyl)-1-((4-(difluoro-methyl)phenyl)sulfonyl)-5-fluoro-1H-indol-2-yl)-[1,1′-biphenyl]-4-carboxylic acid]	> 7.00	
N#Cc1sccc1-c1c(-c2cccs2)n(S(=O)(=O)c2ccc(Cl)cc2)c2cc(C(=O)O)ccc12 [Compound 19]	< 5.00	
